Experimental data taken from PMC7288171, “Synergistic Effects of Thiosemicarbazides with Clinical Drugs against S. aureus” (Molecules, 2020).
In brackets after ≈: the same amount, converted by molar mass.

What was measured:
MSSA-1 = assay: MIC, clinical isolate of S. aureus; format: cell-based; details: Staphylococcus aureus; clinical isolate MSSA-1; read-out: MIC
Experimental: (§1) The antibacterial activity of the thiosemicarbazides 1–9 and antibiotics (amoxicillin, gentamicin, levofloxacin, linezolid, and vancomycin) was tested on the Gram-positive strains (Microbiologics, St. Cloud, MN, USA) (S. aureus ATCC 25923, S. aureus ATCC 6538, S. epidermidis ATCC 12228, B. subtilis ATCC 6633, B. cereus ATCC 10876, M. luteus ATCC 10240), the Gram-negative strains (Microbiologics, St. Cloud, MN, USA) (E. coli ATCC 25922, K. pneumoniae ATCC 13883, P. mirabilis ATCC 12453, P. aeruginosa ATCC 9027), and clinical isolates of S. aureus (Medical University of Lublin, Lublin, Poland) (MSSA-1, MSSA-2, MSSA-3, MSSA-4, MRSA-1).

MSSA-4 = assay: MIC, clinical isolate of S. aureus; format: cell-based; details: Staphylococcus aureus; clinical isolate MSSA-4; read-out: MIC
Experimental: as §1

MSSA-3 = assay: MIC, clinical isolate of S. aureus; format: cell-based; details: Staphylococcus aureus; clinical isolate MSSA-3; read-out: MIC
Experimental: as §1

MSSA-2 = assay: MIC, clinical isolate of S. aureus; format: cell-based; details: Staphylococcus aureus; clinical isolate MSSA-2; read-out: MIC
Experimental: as §1

MRSA-1 = assay: MIC, clinical isolate of S. aureus; format: cell-based; details: Staphylococcus aureus; clinical isolate MRSA-1; read-out: MIC
Experimental: as §1

B. subtilis ATCC 6633 = tested on: B. subtilis ATCC 6633; parameters: method as in PMID 25897586; details: B. s. ATCC 6633; compounds 1–5; cited from earlier work
S. aureus ATCC 25923 [1] = assay: Checkerboard broth dilution synergy assay; format: cell-based
Experimental: The microdilution checkerboard method was used to evaluate the synergistic effects between the thiosemicarbazides 1–9 and antibiotics, which were determined as the fractional inhibitory concentration indices (FICIs). For these experiments, amoxicillin, gentamicin, levofloxacin, linezolid, and vancomycin were selected to represent the five antimicrobial classes most commonly used in clinical practice. In this way, a total of 45 combinations of thiosemicarbazide-amoxicillin, thiosemicarbazide-gentamicin, thiosemicarbazide-levofloxacin, thiosemicarbazide-linezolid, and thiosemicarbazide-vancomycin against S. aureus ATCC 25923 were tested to identify in vitro synergy effects.
Interaction of the thiosemicarbazides 1–9 in combination with amoxicillin, gentamicin, levofloxacin, linezolid or vancomycin against S. aureus ATCC 25923 were analyzed using the checkerboard broth dilution method to determine the fractional inhibitory concentration indices (FICIs), calculated as: FIC = MIC of drug A in combination/MIC of drug A alone + MIC of drug B in combination/MIC of drug B alone. The calculated FICIs were interpreted as synergistic (FIC ≤ 0.5), additive (0.5 < FIC < 1), indifferent (1 ≤ FIC < 4.0), or antagonistic (FIC ≥ 4.0). The checkerboard assay included ciprofloxacin-carvedilol combination as positive control, whereas cefuroxime in combination with 4-(4-bromophenyl)-1-(3-fluorobezoyl)thiosemicarbazide served as negative control. The Z-factor value for the bioassay was 0.683.

B. cereus ATCC 10876 = tested on: B. cereus ATCC 10876; parameters: method as in PMID 25897586; details: B. c. ATCC 10876; compounds 1–5; cited from earlier work
[2] = target: T1, S. aureus topoisomerase IV (Staphylococcus aureus, UniProt P0C1S7+P0C1U9); assay: Topoisomerase IV decatenation assay; format: biochemical; details: in words; 50 and 100 µM tested (Figures S1–S3)
T1 construct: purchased Inspiralis, Norwich, UK
T1 sequence (P0C1U9 whole entry): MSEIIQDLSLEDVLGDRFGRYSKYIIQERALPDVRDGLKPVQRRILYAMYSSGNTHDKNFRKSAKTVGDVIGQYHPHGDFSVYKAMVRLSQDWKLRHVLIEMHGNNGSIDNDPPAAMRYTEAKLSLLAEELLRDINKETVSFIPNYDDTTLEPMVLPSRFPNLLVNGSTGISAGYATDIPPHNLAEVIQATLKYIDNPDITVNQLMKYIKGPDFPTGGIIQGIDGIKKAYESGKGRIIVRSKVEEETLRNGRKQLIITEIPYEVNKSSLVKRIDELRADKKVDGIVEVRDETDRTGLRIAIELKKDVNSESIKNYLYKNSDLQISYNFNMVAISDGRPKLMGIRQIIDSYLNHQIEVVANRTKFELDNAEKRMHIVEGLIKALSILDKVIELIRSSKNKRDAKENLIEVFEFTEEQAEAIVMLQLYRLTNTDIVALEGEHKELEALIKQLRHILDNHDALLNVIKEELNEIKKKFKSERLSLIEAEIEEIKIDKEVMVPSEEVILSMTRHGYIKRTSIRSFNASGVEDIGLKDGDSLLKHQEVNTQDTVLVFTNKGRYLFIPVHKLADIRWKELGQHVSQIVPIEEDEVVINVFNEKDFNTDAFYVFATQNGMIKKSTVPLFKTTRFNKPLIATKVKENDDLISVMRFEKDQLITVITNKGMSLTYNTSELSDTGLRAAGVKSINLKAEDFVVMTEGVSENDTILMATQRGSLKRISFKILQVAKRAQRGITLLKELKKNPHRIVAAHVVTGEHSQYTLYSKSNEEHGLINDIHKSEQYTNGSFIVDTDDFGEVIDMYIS
T1 sequence (P0C1S7 whole entry): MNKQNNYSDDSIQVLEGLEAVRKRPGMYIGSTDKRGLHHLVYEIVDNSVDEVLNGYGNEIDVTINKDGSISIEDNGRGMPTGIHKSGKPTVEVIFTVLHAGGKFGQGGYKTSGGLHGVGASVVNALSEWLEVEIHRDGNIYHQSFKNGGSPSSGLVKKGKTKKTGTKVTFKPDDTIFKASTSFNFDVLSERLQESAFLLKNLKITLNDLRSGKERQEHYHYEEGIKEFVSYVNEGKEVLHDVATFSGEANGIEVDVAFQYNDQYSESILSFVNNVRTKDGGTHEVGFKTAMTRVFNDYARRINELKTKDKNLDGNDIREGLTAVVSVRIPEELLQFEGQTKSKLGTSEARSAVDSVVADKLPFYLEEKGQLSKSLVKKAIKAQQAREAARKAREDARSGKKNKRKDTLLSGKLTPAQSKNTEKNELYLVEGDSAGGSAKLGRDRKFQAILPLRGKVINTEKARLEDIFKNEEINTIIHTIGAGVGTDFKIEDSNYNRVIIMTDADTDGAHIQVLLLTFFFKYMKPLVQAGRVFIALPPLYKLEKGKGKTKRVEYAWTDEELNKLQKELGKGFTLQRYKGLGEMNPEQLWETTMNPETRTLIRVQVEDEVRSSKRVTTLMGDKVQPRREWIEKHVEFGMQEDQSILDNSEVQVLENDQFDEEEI
Experimental: Inhibition of decatenation activity of S. aureus topoisomerase IV: The assay was performed using S. aureus topoisomerase IV decatenation kits (Inspiralis, Norwich, UK). Interlinked kDNA substrate (0.5 µg) was incubated with 1 unit of topoisomerase IV (Inspiralis, Norwich, UK), in the dedicated decatenation assay buffer supplied by the manufacturer, in the presence of varying concentrations of the test compounds. Reactions were carried out at 37 °C for 1 h and then terminated by the addition of equal volume of 2 × STOP Buffer and chloroform/iso-amyl alcohol. Samples were vortexed, centrifuged, and run through a 15 cm 1% agarose gel in TAE buffer for 1.5 h at 80 V. Gels were stained with ethidium bromide and visualized under UV light.

[3] = tested on: S. epidermidis ATCC 12228; parameters: method as in PMID 25897586; details: S. e. ATCC 12228; compounds 1–5; cited from earlier work
M. luteus ATCC 10240 = tested on: M. luteus ATCC 10240; parameters: method as in PMID 25897586; details: M. l. ATCC 10240; compounds 1–5; cited from earlier work
S. aureus ATCC 6538 = tested on: S. aureus ATCC 6538; parameters: method as in PMID 25897586; details: S. a. ATCC 6538; compounds 1–5; cited from earlier work
S. aureus ATCC 25923 [4] = tested on: S. aureus ATCC 25923; parameters: method as in PMID 25897586; details: S. a. ATCC 25923; compounds 1–5; cited from earlier work
[5] = tested on: human foreskin fibroblast Hs27 cells (CRL-1634); assay: MTT cytotoxicity assay; format: cell-based; details: Homo sapiens, 24 h of treatment
Experimental: (§2) A critical factor in research and development of new antibacterial agents is their abilities to selectively target bacterial cells without toxicity to mammalian cells. Thus, in order to test if antibacterial activity of title thiosemicarbazides is not due to their general toxicity, their effect on mammalian cell viability was assessed using human foreskin fibroblast Hs27 cells (CRL-1634) via MTT assay.
(§3) Cytotoxic properties of the compounds were evaluated using human foreskin fibroblast cells Hs27 (ATCC CRL-1634) (ATCC, Manassas, VA, USA) that were cultured in DMEM-high glucose (Sigma Aldrich, St. Louis, MO, USA). Medium was supplemented with 10% fetal bovine serum (FBS, Sigma Aldrich), 100 U/mL of penicillin, and […] of streptomycin (PenStrep, Sigma Aldrich, St. Louis, MO, USA). Cells were incubated at 37 °C in a humidified atmosphere of 5% CO2. Stock solutions of the tested compounds were prepared dissolving in a sterile dimethyl sulfoxide (DMSO) to the concentration of 50 mg/mL. The cells were seeded into 96-well sterile plates (Nunc) at a cell density of 1 × 10^5 cells/mL. After 24 h of incubation, the medium was removed from each well, and then cells were incubated for the next 24 h with tested compounds (in a fixed dose of 25 µg/mL) in DMEM-high glucose containing 2% FBS. Control cells were cultured only with medium containing 2% addition of FBS. Cytotoxicity of the compounds was evaluated using MTT assay, which is based on the conversion of 3-(4,5-dimethylthiazol-2-yl)-2,5- diphenyltetrazolium bromide (MTT) into dark-blue formazan crystals. Briefly, after 24-h incubation of cells with varying concentrations of the tested compounds, culture medium was removed from the plates. Cells were washed with PBS, and then 100 µL of medium containing 10% MTT solution (5 mg/mL) was added to each well. Cells were incubated for the next 3 h at 37 °C in an atmosphere of 5% CO2. Next, 100 µL (per well) of 10% sodium dodecyl sulfate (SDS) buffer solution was added to dissolve formazan crystals and after an overnight incubation the absorbance was measured at 570 nm using a microplate reader (Epoch, BioTek Instruments, Inc., Winooski, VT, USA).

MTT cytotoxicity assay = format: cell-based, human; details: human, Hs27 foreskin fibroblast cells (ATCC CRL-1634), 25 µg/mL, 24 h, vehicle control = 100%
Experimental: as §2, §3

Compound | MIC (MSSA-1) [µg/mL] | MIC (MSSA-4) [µg/mL] | MIC (MSSA-3) [µg/mL] | MIC (MSSA-2) [µg/mL] | MIC (MRSA-1) [µg/mL] | MIC (B. subtilis ATCC 6633) [µg/mL] | interaction in combination (S. aureus ATCC 25923 [1]; combination with amoxicillin) | interaction in combination (S. aureus ATCC 25923 [1]; combination with gentamicin) | interaction in combination (S. aureus ATCC 25923 [1]; combination with levofloxacin) | interaction in combination (S. aureus ATCC 25923 [1]; combination with linezolid) | interaction in combination (S. aureus ATCC 25923 [1]; combination with vancomycin) | MIC (B. cereus ATCC 10876) [µg/mL] | inhibitory action against topoisomerase IV [2] | MIC [3] [µg/mL] | MIC (M. luteus ATCC 10240) [µg/mL] | MIC (S. aureus ATCC 6538) [µg/mL] | MIC (S. aureus ATCC 25923 [4]) [µg/mL] | IC50 [5] [µg/mL] | viability at 24 h, 25 µg/mL (MTT cytotoxicity assay) [%]
Cc1ccccc1C(=O)NC(=S)NNC(=O)c1cccc(Cl)c1Cl [compound 1] | > 500 | > 500 | > 500 | > 500 | 125 (≈ 327 µM) | 3.91 (≈ 10.2 µM) | additive | no interactions | no interactions | additive | no interactions | 3.91 (≈ 10.2 µM) | no inhibitory effects | 7.81 (≈ 20.4 µM) | 1.95 (≈ 5.1 µM) | 15.63 (≈ 40.9 µM) | 15.63 (≈ 40.9 µM) | > 25 | 78.5
O=C(NC(=S)NNC(=O)c1cccc(Cl)c1Cl)c1ccc([N+](=O)[O-])cc1 [compound 5] | > 500 | 500 (≈ 1210 µM) | > 500 | > 500 | 250 (≈ 605 µM) | 0.98 (≈ 2.37 µM) | no interactions | no interactions | no interactions | synergistically | no interactions | 0.98 (≈ 2.37 µM) | – | 1.95 (≈ 4.72 µM) | 0.49 (≈ 1.19 µM) | 1.95 (≈ 4.72 µM) | 1.95 (≈ 4.72 µM) | > 25 | 70.9
O=C(NC(=S)NNC(=O)c1cccc(Cl)c1Cl)c1ccc(Cl)cc1 [compound 4] | > 500 | 500 (≈ 1240 µM) | > 500 | > 500 | > 500 | 0.98 (≈ 2.43 µM) | additive | – | synergistic | additive | did not display any synergism nor additivity | 3.91 (≈ 9.71 µM) | – | 7.81 (≈ 19.4 µM) | 1.95 (≈ 4.84 µM) | 15.63 (≈ 38.8 µM) | 31.25 (≈ 77.6 µM) | > 25 | 80.7
O=C(NC(=S)NNC(=O)c1cccc(Cl)c1Cl)c1ccccc1Cl [compound 3] | > 500 | 250 (≈ 621 µM) | > 500 | > 500 | 125 (≈ 310 µM) | 3.91 (≈ 9.71 µM) | additively | additively | additively | additively | no interaction | 3.91 (≈ 9.71 µM) | no inhibitory effects | 7.81 (≈ 19.4 µM) | 0.98 (≈ 2.43 µM) | 15.63 (≈ 38.8 µM) | 15.63 (≈ 38.8 µM) | > 25 | 81
